Results published in US6596730B1, “Phenyl urea and phenyl thiourea derivatives” (SmithKline Beecham p.l.c., priority 1999, dated 2003).
Counter-ions that a name gives are not always drawn.

What was measured:
rat = experiment: Rat sleep/EEG studies, central administration; type: in vivo; conditions: central administration at the onset of the normal sleep period
Text: Therefore antagonists of its receptor may be useful in the treatment of sleep disorders including insomnia.

freely-feeding rats = conditions: central administration, 4 hour time period; cited from earlier work
human orexin-1 receptor = target: T1, human orexin-1 receptor (Homo sapiens, UniProt O43613); experiment: Determination of orexin-1 receptor antagonist activity (FLIPR calcium mobilisation, HEK293 cells, against 3.0 nM human orexin-A); type: cell-based; conditions: HEK293 cells expressing human orexin-1 receptor; Kb=IC50/(1+([3/EC50]); agonist 3.0 nM human orexin-A
T1 construct: expressed in transfected cells; host or cells: HEK293
T1 sequence (O43613 1-425): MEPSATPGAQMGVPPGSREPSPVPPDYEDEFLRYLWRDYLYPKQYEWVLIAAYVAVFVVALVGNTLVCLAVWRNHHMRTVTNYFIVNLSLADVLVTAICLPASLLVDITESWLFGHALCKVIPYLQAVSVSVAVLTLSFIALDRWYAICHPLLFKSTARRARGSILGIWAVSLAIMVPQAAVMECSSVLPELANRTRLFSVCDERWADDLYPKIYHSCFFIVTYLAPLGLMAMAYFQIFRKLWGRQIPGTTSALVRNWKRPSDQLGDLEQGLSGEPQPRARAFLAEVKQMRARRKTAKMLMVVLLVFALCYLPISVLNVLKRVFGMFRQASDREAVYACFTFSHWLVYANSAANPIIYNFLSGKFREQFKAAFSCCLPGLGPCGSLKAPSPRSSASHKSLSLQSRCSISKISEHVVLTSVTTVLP
Method: The orexin-1 receptor antagonist activity of the compounds of formula (I) was determined in accordance with the following experimental method.
HEK293 cells expressing the human orexin-1 receptor were grown in cell medium (MEM medium with Earl's salts) containing 2 mM L-Glutamine, 0.4 mg/mL G418 Sulfate from GIBCO BRL and 10% heat inactivated fetal calf serum from Gibco BRL. The cells were seeded at 20,000 cells/100 μl/well into 96-well black clear bottom sterile plates from Costar which had been pre-coated with 10 μg/well of poly-L-lysine from SIGMA. The seeded plates were incubated overnight at 37° C. in 5% CO2.
Agonists were prepared as 1 mM stocks in water:DMSO (1:1). […] Antagonist IC^50 values (the concentration of compound needed to inhibit 50% of the agonist response) were determined against 3.0 nM human orexin-A using 11×half log unit dilutions in Tyrode's buffer containing 10% DMSO and probenecid. On the day of assay 50 μl of cell medium containing probenecid (Sigma) and Fluo3AM (Texas Fluorescence Laboratories) was added (Quadra, Tomtec) to each well to give final concentrations of 2.5 mM and 4 μM, respectively. […] Cell plates were then transferred to the Fluorescent Imaging Plate Reader (FLIPR, Molecular Devices) instrument and maintained at 37° C. in humidified air. […] Agonists were added (by the FLIPR) after 20 sec (during continuous reading). […]

Kb (human orexin-1 receptor)	Molecule	effect on arousal / sleep (rat)	increase in food intake over control rats receiving vehicle (freely-feeding rats)
–	orexin-A: ligand for the orexin-1 receptor, agonist of the orexin receptors; 33-residue peptide, sequence given in the 1st table (QPLPDCCRQKTCSCRLYELLHGAGNHAAGILTL; Orexin-A; UniProt O43612 34-66, looked up)	dose-related increase in arousal	approximately four-fold
< 31.6 nM	COc1ccc(NC(=O)Nc2cc(C)nc3cccnc23)cc1C(=O)NCC1CC1 [Example 2, N-Cyclopropylmethyl-2-methoxy-5-[3-(2-methyl-[1,5]-naphthyridin-4-yl)ureido]benzamide Hydrochloride]	–	–
